Experimental data reported in US20240270762A1, “PENICILLIN-BINDING PROTEIN INHIBITORS” (priority 2021, published 2024).
≈ marks a conversion by molar mass, not a printed value. Read-outs that look alike come from different tables or passages of the source.

Experiments:
N. gonorrhoeae WHO Z = assay: Liquid broth MIC in Fastidious broth; settings: Neisseria gonorrhoeae
[1] = biological target: T1, PBP3 from Pseudomonas aeruginosa (PAO1) (Pseudomonas aeruginosa, UniProt G3XD46); assay: Bocillin-FL fluorescence polarization competition binding, P. aeruginosa PBP3; settings: Binding affinity to P. aeruginosa PBP3; fluorescence polarization competition binding assay using Bocillin-FL; read-out: P. aeruginosa PBP3 Potency
T1 construct: made in house
T1 sequence (G3XD46 whole entry): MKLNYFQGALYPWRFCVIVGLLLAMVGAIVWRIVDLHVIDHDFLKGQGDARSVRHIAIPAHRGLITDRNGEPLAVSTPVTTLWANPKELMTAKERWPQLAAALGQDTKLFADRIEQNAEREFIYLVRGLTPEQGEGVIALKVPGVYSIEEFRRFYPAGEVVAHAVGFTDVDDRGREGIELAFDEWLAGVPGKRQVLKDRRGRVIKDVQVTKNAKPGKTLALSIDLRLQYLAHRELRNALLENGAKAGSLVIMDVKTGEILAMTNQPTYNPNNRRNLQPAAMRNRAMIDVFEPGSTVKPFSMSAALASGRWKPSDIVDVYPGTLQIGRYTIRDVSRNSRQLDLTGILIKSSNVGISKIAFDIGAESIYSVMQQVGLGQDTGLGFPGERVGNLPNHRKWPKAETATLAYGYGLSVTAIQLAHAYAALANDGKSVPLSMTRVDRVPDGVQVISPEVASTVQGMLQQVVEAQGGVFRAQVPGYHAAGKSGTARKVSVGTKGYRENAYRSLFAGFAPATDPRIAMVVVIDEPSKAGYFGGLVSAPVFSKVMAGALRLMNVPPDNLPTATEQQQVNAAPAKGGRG
In short: (§1)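 Purified PBP was preincubated with inhibitor (E. coli PBP3 1.5 μM, 30 min; P. aeruginosa PBP3 0.75 μM, A. baumannii PBP3 0.2 μM and PBP1a 1 μM, 15 min), then Bocillin-FL (0.1 μM; 0.05 μM for PBP1a) added and FP read up to 60 min. EC50 = 50% loss of bound probe.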

P. aeruginosa CDC-0110 = assay: microbe, parasite or virus in culture; assay type: cell-based; settings: Pseudomonas aeruginosa, CDC0110, read-out: Minimum inhibitory concentration, P. aeruginosa CDC-0110
P. aeruginosa CDC-0095 = assay: microbe, parasite or virus in culture; assay type: cell-based; settings: Pseudomonas aeruginosa, CDC0095, read-out: Minimum inhibitory concentration, P. aeruginosa CDC-0095
P. aeruginosa CDC-0054 = assay: microbe, parasite or virus in culture; assay type: cell-based; settings: Pseudomonas aeruginosa, CDC0054, read-out: Minimum inhibitory concentration, P. aeruginosa CDC-0054
N. gonorrhoeae MS11 = assay: Liquid broth MIC in Fastidious broth; settings: Neisseria gonorrhoeae
A. baumannii ATCC 17978 = assay: microbe, parasite or virus in culture; assay type: cell-based; settings: Acinetobacter baumannii, ATCC17978, read-out: MIC, A. baumannii ATCC 17978
[2] = tested on: B. humptydooensis ATCC BAA-2767; assay: microbe, parasite or virus in culture; assay type: cell-based; settings: Burkholderia humptydooensis, ATCCBAA2767, read-out: Minimum inhibitory concentration (MIC), B. humptydooensis ATCC BAA-2767
N. gonorrhoeae WHO L = assay: Liquid broth MIC in Fastidious broth; settings: Neisseria gonorrhoeae
Procedure: (§2) Liquid broth-based assays were used for antibacterial testing of PBP inhibitors in Neisseria gonorrhoeae. Briefly, cryo-preserved bacterial cultures of clinical strains were streaked for isolation on Chocolate Agar (72 g/L (2×) GC Agar Base (BD #228950) and 2% (2×) Hemoglobin was autoclaved at 121° C. for 20 minutes to sterilize. Once cooled to ˜50° C. the 2×GC Agar Base and 2× Hemoglobin solutions are combined and 1% IsoVitaleX Enrichment (BD #211876) was added to the solution). Strains were incubated at 36° C. and 5% CO2 to allow growth of colonies, 24 hours before inoculum preparation. 2-fold serial dilutions of test compounds were conducted in a 96 well plate with a final volume of 75 μL per well at 2-fold the final desired concentration in Fastidious broth (Remel #R07664). For preparation of assay inoculum, a direct suspension was prepared by aseptically swabbing 10-15 colonies from agar plates into culture tubes containing 2 mL of fresh sterile saline. After the dilution plates were set up, direct suspensions were then diluted in a cuvette containing sterile saline and the optical density was measured at 600 nm. Inocula were diluted such that 75 μL of this culture in Fastidious broth results in a starting bacterial concentration of 5×10^5 CFU/mL when added to the dilution plates. The plates were incubated for ˜24 hours at 36° C. and 5% CO2.

[3] = biological target: T2, PBP3 from Escherichia coli (K-12) (Escherichia coli, UniProt P0AD68); assay: Bocillin-FL fluorescence polarization competition binding, E. coli PBP3
T2 construct: made in house
T2 sequence (P0AD68 1-577): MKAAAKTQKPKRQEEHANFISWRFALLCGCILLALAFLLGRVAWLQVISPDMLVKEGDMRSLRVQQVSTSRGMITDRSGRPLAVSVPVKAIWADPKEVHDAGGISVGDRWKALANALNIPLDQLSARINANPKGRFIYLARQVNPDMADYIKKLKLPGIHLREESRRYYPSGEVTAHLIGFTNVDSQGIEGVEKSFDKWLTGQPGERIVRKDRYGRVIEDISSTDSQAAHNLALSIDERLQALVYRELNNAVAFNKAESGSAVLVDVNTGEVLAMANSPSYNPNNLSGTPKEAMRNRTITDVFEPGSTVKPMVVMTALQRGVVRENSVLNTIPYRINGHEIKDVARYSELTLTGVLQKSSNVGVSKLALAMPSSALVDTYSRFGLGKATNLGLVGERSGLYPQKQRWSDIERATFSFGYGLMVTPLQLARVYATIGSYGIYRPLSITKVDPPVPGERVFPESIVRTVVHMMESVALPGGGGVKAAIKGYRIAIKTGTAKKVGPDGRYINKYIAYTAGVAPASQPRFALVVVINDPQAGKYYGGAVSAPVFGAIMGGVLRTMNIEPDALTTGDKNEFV
In short: as §1

N. gonorrhoeae FA1090 = assay: Liquid broth MIC in Fastidious broth; settings: Neisseria gonorrhoeae
A. baumannii CDC-0036 = assay: microbe, parasite or virus in culture; assay type: cell-based; settings: Acinetobacter baumannii, CDC0036, read-out: MIC, A. baumannii CDC-0036
A. baumannii CDC-0033 = assay: microbe, parasite or virus in culture; assay type: cell-based; settings: Acinetobacter baumannii, CDC0033, read-out: MIC, A. baumannii CDC-0033
N. gonorrhoeae WHO K = assay: Liquid broth MIC in Fastidious broth; settings: Neisseria gonorrhoeae
Procedure: as §2

P. aeruginosa ATCC 27853 = assay: microbe, parasite or virus in culture; assay type: cell-based; settings: Pseudomonas aeruginosa, ATCC27853, read-out: Minimum inhibitory concentration, P. aeruginosa ATCC 27853
[4] = read-out: Minimum Inhibitory Concentration, WHO Z
[5] = MS11, read-out: Minimum Inhibitory Concentration, MS11
[6] = read-out: Minimum Inhibitory Concentration, WHO L
[7] = FA1090, read-out: Minimum Inhibitory Concentration, FA 1090
[8] = read-out: Minimum Inhibitory Concentration, WHO K
[9] = read-out: Minimum Inhibitory Concentration (MIC), N. gonorrhoeae WHO Z
[10] = MS11, read-out: Minimum Inhibitory Concentration (MIC), N. gonorrhoeae MS11
[11] = read-out: Minimum Inhibitory Concentration (MIC), N. gonorrhoeae WHO L
[12] = FA1090, read-out: Minimum Inhibitory Concentration (MIC), N. gonorrhoeae FA 1090
[13] = read-out: Minimum Inhibitory Concentration (MIC), N. gonorrhoeae WHO K

| Structure (SMILES) | MIC (N. gonorrhoeae WHO Z; [4]) | IC50 [1] | MIC (P. aeruginosa CDC-0110) | MIC (P. aeruginosa CDC-0095) | MIC (P. aeruginosa CDC-0054) | MIC (N. gonorrhoeae MS11; [5]) | MIC (A. baumannii ATCC 17978) | MIC [2] | MIC (N. gonorrhoeae WHO L; [6]) | EC50 [3] | MIC (N. gonorrhoeae FA1090; [7]) | MIC (A. baumannii CDC-0036) | MIC (A. baumannii CDC-0033) | MIC (N. gonorrhoeae WHO K; [8]) | MIC (P. aeruginosa ATCC 27853) | MIC (N. gonorrhoeae WHO Z; [9]) | MIC (N. gonorrhoeae MS11; [10]) | MIC (N. gonorrhoeae WHO L; [11]) | MIC (N. gonorrhoeae FA1090; [12]) | MIC (N. gonorrhoeae WHO K; [13]) |
| --- | --- | --- | --- | --- | --- | --- | --- | --- | --- | --- | --- | --- | --- | --- | --- | --- | --- | --- | --- | --- |
| O=C(NCCCN1CCN(C(=O)NC(C(=O)N[C@H]2Cc3ccc(F)c(C(=O)O)c3OB2O)c2cc(F)c(O)c(O)c2Cl)C1=O)c1ccncc1 (stereo partly drawn) [Example 256, (3R)-3-(2-(2-chloro-5-fluoro-3,4-dihydroxyphenyl)-2-(3-(3-(isonicotinamido)propyl)-2-oxoimidazolidine-1-carboxamido)acetamido)-7-fluoro-2-hydroxy-3,4-dihydro-2H-benzo[e][1,2]oxaborinine-8-carboxylic acid] | 16 to 32 µg/mL (≈ 22.3 to 44.6 µM) | < 10 µM | 2 to 4 µg/mL (≈ 2.79 to 5.58 µM) | 2 to 4 µg/mL (≈ 2.79 to 5.58 µM) | 2 to 4 µg/mL (≈ 2.79 to 5.58 µM) | > 64 µg/mL | < 1 µg/mL | < 1 µg/mL | > 64 µg/mL | 10 to 50 µM | 4 to 8 µg/mL (≈ 5.58 to 11.2 µM) | 2 to 4 µg/mL (≈ 2.79 to 5.58 µM) | 2 to 4 µg/mL (≈ 2.79 to 5.58 µM) | > 64 µg/mL | 2 to 4 µg/mL (≈ 2.79 to 5.58 µM) |  |  |  |  |  |
| O=C(NCCN1CCN(C(=O)N[C@@H](C(=O)N[C@H]2Cc3ccc(F)c(C(=O)O)c3OB2O)c2cc(F)c(O)c(O)c2Cl)C(=O)C1=O)Nc1cccnc1 [Example 222, (R)-3-((R)-2-(2-chloro-5-fluoro-3,4-dihydroxyphenyl)-2-(2,3-dioxo-4-(2-(3-(pyridin-3-yl)ureido)ethyl)piperazine-1-carboxamido)acetamido)-7-fluoro-2-hydroxy-3,4-dihydro-2H-benzo[e][1,2]oxaborinine-8-carboxylic acid] |  | < 10 µM | < 1 µg/mL | 8 to 16 µg/mL (≈ 10.7 to 21.5 µM) | 2 to 4 µg/mL (≈ 2.68 to 5.36 µM) |  | < 1 µg/mL | 2 to 4 µg/mL (≈ 2.68 to 5.36 µM) |  | < 10 µM |  | 2 to 4 µg/mL (≈ 2.68 to 5.36 µM) | 2 to 4 µg/mL (≈ 2.68 to 5.36 µM) |  | < 1 µg/mL | > 64 µg/mL | 16 to 32 µg/mL (≈ 21.5 to 42.9 µM) | > 64 µg/mL | 1 to 2 µg/mL (≈ 1.34 to 2.68 µM) | > 64 µg/mL |
| CN(CCN1CCN(C(=O)N[C@@H](C(=O)N[C@H]2Cc3ccc(F)c(C(=O)O)c3OB2O)c2cc(F)c(O)c(O)c2Cl)C(=O)C1=O)Cc1nccs1 [Example 200, (R)-3-((R)-2-(2-chloro-5-fluoro-3,4-dihydroxyphenyl)-2-(4-(2-(methyl(thiazol-2-ylmethyl)amino)ethyl)-2,3-dioxopiperazine-1-carboxamido)acetamido)-7-fluoro-2-hydroxy-3,4-dihydro-2H-benzo[e][1,2]oxaborinine-8-carboxylic acid] |  | < 10 µM | < 1 µg/mL | < 1 µg/mL | < 1 µg/mL |  | < 1 µg/mL | < 1 µg/mL |  | 10 to 50 µM |  | 2 to 4 µg/mL (≈ 2.71 to 5.43 µM) | 2 to 4 µg/mL (≈ 2.71 to 5.43 µM) |  | < 1 µg/mL | 16 to 32 µg/mL (≈ 21.7 to 43.4 µM) | 16 to 32 µg/mL (≈ 21.7 to 43.4 µM) | > 64 µg/mL | 1 to 2 µg/mL (≈ 1.36 to 2.71 µM) | 16 to 32 µg/mL (≈ 21.7 to 43.4 µM) |
| O=C(NCCN1CCN(C(=O)NC(C(=O)N[C@H]2Cc3ccc(F)c(C(=O)O)c3OB2O)c2cc(F)c(O)c(O)c2Cl)C(=O)C1=O)c1ccc(O)cc1 (stereo partly drawn) [Example 214, (3R)-3-(2-(2-chloro-5-fluoro-3,4-dihydroxyphenyl)-2-(4-(2-(4-hydroxybenzamido)ethyl)-2,3-dioxopiperazine-1-carboxamido)acetamido)-7-fluoro-2-hydroxy-3,4-dihydro-2H-benzo[e][1,2]oxaborinine-8-carboxylic acid] |  | < 10 µM | < 1 µg/mL | 2 to 4 µg/mL (≈ 2.68 to 5.36 µM) | 2 to 4 µg/mL (≈ 2.68 to 5.36 µM) |  | < 1 µg/mL | < 1 µg/mL |  | < 10 µM |  | 8 to 16 µg/mL (≈ 10.7 to 21.5 µM) | 8 to 16 µg/mL (≈ 10.7 to 21.5 µM) |  | 2 to 4 µg/mL (≈ 2.68 to 5.36 µM) | 16 to 32 µg/mL (≈ 21.5 to 42.9 µM) | 16 to 32 µg/mL (≈ 21.5 to 42.9 µM) | > 64 µg/mL | 1 to 2 µg/mL (≈ 1.34 to 2.68 µM) | > 64 µg/mL |
| O=C(NCCS(=O)(=O)N1CCN(C(=O)NC(C(=O)N[C@H]2Cc3ccc(F)c(C(=O)O)c3OB2O)c2cc(F)c(O)c(O)c2Cl)C1=O)Nc1cccc(O)c1 (stereo partly drawn) [Example 266, (3R)-3-(2-(2-chloro-5-fluoro-3,4-dihydroxyphenyl)-2-(3-((2-(3-(3-hydroxyphenyl)ureido)ethyl)sulfonyl)-2-oxoimidazolidine-1-carboxamido)acetamido)-7-fluoro-2-hydroxy-3,4-dihydro-2H-benzo[e][1,2]oxaborinine-8-carboxylic acid] | 4 to 8 µg/mL (≈ 5.02 to 10 µM) | < 10 µM | 2 to 4 µg/mL (≈ 2.51 to 5.02 µM) | 8 to 16 µg/mL (≈ 10 to 20.1 µM) | 2 to 4 µg/mL (≈ 2.51 to 5.02 µM) | 16 to 32 µg/mL (≈ 20.1 to 40.2 µM) | < 1 µg/mL | 8 to 16 µg/mL (≈ 10 to 20.1 µM) | > 64 µg/mL | < 10 µM | 1 to 2 µg/mL (≈ 1.25 to 2.51 µM) | 2 to 4 µg/mL (≈ 2.51 to 5.02 µM) | 2 to 4 µg/mL (≈ 2.51 to 5.02 µM) | 16 to 32 µg/mL (≈ 20.1 to 40.2 µM) | 2 to 4 µg/mL (≈ 2.51 to 5.02 µM) |  |  |  |  |  |
| O=C(NCCCN1CCN(C(=O)NC(C(=O)N[C@H]2Cc3ccc(F)c(C(=O)O)c3OB2O)c2cc(F)c(O)c(O)c2Cl)C1=O)c1nccs1 (stereo partly drawn) [Example 257, (3R)-3-(2-(2-chloro-5-fluoro-3,4-dihydroxyphenyl)-2-(2-oxo-3-(3-(thiazole-2-carboxamido)propyl)imidazolidine-1-carboxamido)acetamido)-7-fluoro-2-hydroxy-3,4-dihydro-2H-benzo[e][1,2]oxaborinine-8-carboxylic acid] | 16 to 32 µg/mL (≈ 22.1 to 44.3 µM) | < 10 µM | 2 to 4 µg/mL (≈ 2.77 to 5.53 µM) | 2 to 4 µg/mL (≈ 2.77 to 5.53 µM) | 2 to 4 µg/mL (≈ 2.77 to 5.53 µM) | 16 to 32 µg/mL (≈ 22.1 to 44.3 µM) | < 1 µg/mL | 2 to 4 µg/mL (≈ 2.77 to 5.53 µM) | > 64 µg/mL | 10 to 50 µM | 4 to 8 µg/mL (≈ 5.53 to 11.1 µM) | 2 to 4 µg/mL (≈ 2.77 to 5.53 µM) | 2 to 4 µg/mL (≈ 2.77 to 5.53 µM) | > 64 µg/mL | 2 to 4 µg/mL (≈ 2.77 to 5.53 µM) |  |  |  |  |  |
| O=C(NCCCS(=O)(=O)N1CCN(C(=O)NC(C(=O)N[C@H]2Cc3ccc(F)c(C(=O)O)c3OB2O)c2cc(F)c(O)c(O)c2Cl)C1=O)c1nccs1 (stereo partly drawn) [Example 274, (3R)-3-(2-(2-chloro-5-fluoro-3,4-dihydroxyphenyl)-2-(2-oxo-3-((3-(thiazole-2-carboxamido)propyl)sulfonyl)imidazolidine-1-carboxamido)acetamido)-7-fluoro-2-hydroxy-3,4-dihydro-2H-benzo[e][1,2]oxaborinine-8-carboxylic acid] | 16 to 32 µg/mL (≈ 20.3 to 40.7 µM) | < 10 µM | 2 to 4 µg/mL (≈ 2.54 to 5.08 µM) | > 128 µg/mL | 2 to 4 µg/mL (≈ 2.54 to 5.08 µM) | 16 to 32 µg/mL (≈ 20.3 to 40.7 µM) | < 1 µg/mL | 2 to 4 µg/mL (≈ 2.54 to 5.08 µM) | > 64 µg/mL | < 10 µM | 4 to 8 µg/mL (≈ 5.08 to 10.2 µM) | 2 to 4 µg/mL (≈ 2.54 to 5.08 µM) | 8 to 16 µg/mL (≈ 10.2 to 20.3 µM) | > 64 µg/mL | 2 to 4 µg/mL (≈ 2.54 to 5.08 µM) |  |  |  |  |  |
| O=C(NCCCN1CCN(C(=O)N[C@@H](C(=O)N[C@H]2Cc3ccc(F)c(C(=O)O)c3OB2O)c2cc(F)c(O)c(O)c2Cl)C(=O)C1=O)c1cccnc1 [Example 210, (R)-3-((R)-2-(2-chloro-5-fluoro-3,4-dihydroxyphenyl)-2-(4-(3-(nicotinamido)propyl)-2,3-dioxopiperazine-1-carboxamido)acetamido)-7-fluoro-2-hydroxy-3,4-dihydro-2H-benzo[e][1,2]oxaborinine-8-carboxylic acid] |  | < 10 µM | < 1 µg/mL | < 1 µg/mL | < 1 µg/mL |  | < 1 µg/mL | < 1 µg/mL |  | < 10 µM |  | 2 to 4 µg/mL (≈ 2.69 to 5.37 µM) | 8 to 16 µg/mL (≈ 10.7 to 21.5 µM) |  | 2 to 4 µg/mL (≈ 2.69 to 5.37 µM) | 16 to 32 µg/mL (≈ 21.5 to 43 µM) | 16 to 32 µg/mL (≈ 21.5 to 43 µM) | > 64 µg/mL | < 1 µg/mL | > 64 µg/mL |
